In US11236122B2, “Triterpene amine derivatives” (DFH THERAPEUTICS, priority 2018, dated 2022):
Counter-ions that a name gives are not always drawn.

Columns and labels:
pNL4-3 SP1-V7A = assay: CA-SP1 accumulation assay, SP1-V7A derivative; assay type: cell-based, HIV-1; conditions: HeLa or 293T cells; for % CA-SP1 Accumulation 100 nM SP1 V7A: 100 nM compound; for % CA-SP1 Accumulation 10 nM SP1 V7A: 10 nM compound
Procedure: (§1) Cell culture, plasmids and transfections. The MT-4 T-cell line was maintained in RPMI-1640 medium supplemented with 10% (vol/vol) fetal bovine serum (FBS), 2 mM glutamine, 100 U/mL penicillin and 100 μg/mL streptomycin at 37° C. in a humidified 5% CO2 atmosphere. HeLa and 293T cells were maintained in Dulbecco's modified Eagle's medium (DMEM) supplemented with 5% (vol/vol) FBS, 2 mM glutamine, 100 U/mL penicillin and 100 μg/mL streptomycin. Molecular clones used in this study were WT pNL4-3 and the derivative encoding a Val-to-Ala mutation at SP1 residue 7, referred to as SP1-V7A. The MT-4 T-cell line was transfected the DEAE/dextran procedure; HeLa and 293T cells were transfected with linear polyethylenimine (L-PEI) or Lipofectamine 2000 (Invitrogen) as recommended by the supplier.
(§2) CA-SP1 accumulation assay. For CA-SP1 accumulation assays, HeLa or 293T cells were transfected with WT pNL4-3 or the SP1-V7A derivative. At 24 h post-transfection, cells were starved in Met/Cys-free medium for 30 min and metabolically labeled with [^35S]Met/Cys-Pro-mix (Amersham) for 2-3 h. Maturation inhibitors were maintained in the cultures throughout the transfection and labeling period. Viruses were collected by ultracentrifugation at 99,000×g for 45-60 min. Virus pellets were resuspended in Triton X-100 lysis buffer [300 mM NaCl, 50 mM Tris-HCl (pH 7.5), 0.5% Triton X-100, 10 mM iodoacetamide, and protease inhibitor cocktail tablets (Roche)]. CA and CA-SP1 proteins were separated on 13.5-15% polyacrylamide gels by SDS-polyacrylamide gel electrophoresis, exposed to a phosphorimager plate (Fuji) and quantified by Quantity One software (Bio-Rad).

WT pNL4-3 = assay: CA-SP1 accumulation assay, WT NL4-3; assay type: cell-based, HIV-1; conditions: HeLa or 293T cells; for % CA-SP1 Accumulation 100 nM NL4-3: 100 nM compound; for % CA-SP1 Accumulation 10 nM NL4-3: 10 nM compound
Procedure: as §1, §2

Row | Compound | % CA-SP1 Accumulation 100 nM SP1 V7A (pNL4-3 SP1-V7A) | % CA-SP1 Accumulation 100 nM NL4-3 (WT pNL4-3) | % CA-SP1 Accumulation 10 nM SP1 V7A (pNL4-3 SP1-V7A) | % CA-SP1 Accumulation 10 nM NL4-3 (WT pNL4-3) [%]
1 | C=C(C)[C@@H]1CC[C@]2(CCNCCCN3CCCC3=O)CC[C@]3(C)[C@H](CC[C@@H]4[C@@]5(C)CC[C@H](OC(=O)CC(C)(C)CC(=O)O)C(C)(C)[C@@H]5CC[C@]43C)[C@@H]12 [Compound 51a, (3β)-17-[2-[[3-(2-Oxopyrrolidin-1-yl)propyl]amino]ethyl]-28-norlup-20(29)-en-3-ol, 3-(Hydrogen 3,3-Dimethylpentanedioate)] | 18.0% | 62.0% | – | –
2 | C=C(C)[C@@H]1CC[C@]2(CCCNCCCN3CCCC3)CC[C@]3(C)[C@H](CC[C@@H]4[C@@]5(C)CC[C@H](OC(=O)CC(C)(C)C(=O)O)C(C)(C)[C@@H]5CC[C@]43C)[C@@H]12 [Compound 51aa, (3β)-17-[3-[[3-(1-Pyrrolidinyl)propyl]amino]propyl]-28-norlup-20(29)-en-3-ol, 3-(1-Hydrogen 2,2-Dimethylbutanedioate) Sulfate] | 14.4% | 45.2% | 5.3% | 12.5
3 | C=C(C)[C@@H]1CC[C@]2(CCNCCC(=O)N3CCN(C)CC3)CC[C@]3(C)[C@H](CC[C@@H]4[C@@]5(C)CC[C@H](OC(=O)CC(C)(C)CC(=O)O)C(C)(C)[C@@H]5CC[C@]43C)[C@@H]12 [Compound 51b, (3β)-17-[2-[[3-(4-Methylpiperazin-1-yl)-3-oxopropyl]amino]ethyl]-28-norlup-20(29)-en-3-ol, 3-(Hydrogen 3,3-Dimethylpentanedioate)] | 21.0% | 58.0% | – | –
4 | C=C(C)[C@@H]1CC[C@]2(CCCNCCN3CCN(Cc4ccccc4)CC3)CC[C@]3(C)[C@H](CC[C@@H]4[C@@]5(C)CC[C@H](OC(=O)CC(C)(C)C(=O)O)C(C)(C)[C@@H]5CC[C@]43C)[C@@H]12 [Compound 51bb, (3β)-17-[3-[[2-[4-(Phenylmethyl)piperazin-1-yl]ethyl]amino]propyl]-28-norlup-20(29)-en-3-ol, 3-(1-Hydrogen 2,2-Dimethylbutanedioate) Sesquisulfate] | 3.7% | 8.4% | 4.8% | 5.8
5 | C=C(C)[C@@H]1CC[C@]2(CCNCCCN3CCN(S(C)(=O)=O)CC3)CC[C@]3(C)[C@H](CC[C@@H]4[C@@]5(C)CC[C@H](OC(=O)CC(C)(C)CC(=O)O)C(C)(C)[C@@H]5CC[C@]43C)[C@@H]12 [Compound 51c, (3β)-17-[2-[[3-[4-(Methylsulfonyl)piperazin-1-yl]propyl]amino]ethyl]-28-norlup-20(29)-en-3-ol, 3-(Hydrogen 3,3-Dimethylpentanedioate)] | 29.2 (3) % | 72.9 (3) % | – | –
6 | C=C(C)[C@@H]1CC[C@]2(CCCNCCN3CCN(S(C)(=O)=O)CC3)CC[C@]3(C)[C@H](CC[C@@H]4[C@@]5(C)CC[C@H](OC(=O)CC(C)(C)C(=O)O)C(C)(C)[C@@H]5CC[C@]43C)[C@@H]12 [Compound 51cc, (3β)-17-[3-[[2-[4-(Methylsulfonyl)piperazin-1-yl]ethyl]amino]propyl]-28-norlup-20(29)-en-3-ol, 3-(1-Hydrogen 2,2-Dimethylbutanedioate) Sesquisulfate] | 19.3% | 58.4% | 12.5% | 26.0
7 | C=C(C)[C@@H]1CC[C@]2(CCNCCCN3CCN(CCO)CC3)CC[C@]3(C)[C@H](CC[C@@H]4[C@@]5(C)CC[C@H](OC(=O)CC(C)(C)CC(=O)O)C(C)(C)[C@@H]5CC[C@]43C)[C@@H]12 [Compound 51d, (3β)-17-[2-[[3-[4-(2-Hydroxyethyl)piperazin-1-yl]propyl]amino]ethyl]-28-norlup-20(29)-en-3-ol, 3-(Hydrogen 3,3-Dimethylpentanedioate)] | 20.4 (3) % | 71.6 (3) % | – | –
8 | C=C(C)[C@@H]1CC[C@]2(CCCNCCN3CCS(=O)(=O)CC3)CC[C@]3(C)[C@H](CC[C@@H]4[C@@]5(C)CC[C@H](OC(=O)CC(C)(C)C(=O)O)C(C)(C)[C@@H]5CC[C@]43C)[C@@H]12 [Compound 51dd, (3β)-17-[[[3-[2-(1,1-Dioxothiomorpholin-4-yl)]Ethyl]Amino]Propyl]-28-norlup-20(29)-en-3-ol, 3-(1-Hydrogen 2,2-Dimethylbutanedioate) Sulfate] | 7.3% | 9.7% | 5.9% | 8.2
9 | C=C(C)[C@@H]1CC[C@]2(CCNCCCN3CCN(CCOC)CC3)CC[C@]3(C)[C@H](CC[C@@H]4[C@@]5(C)CC[C@H](OC(=O)CC(C)(C)CC(=O)O)C(C)(C)[C@@H]5CC[C@]43C)[C@@H]12 [Compound 51e, (3β)-17-[2-[[3-[4-(2-Methoxyethyl)piperazin-1-yl]propyl]amino]ethyl]-28-norlup-20(29)-en-3-ol, 3-(Hydrogen 3,3-Dimethylpentanedioate)] | 23.1 (3) % | 70.4 (3) % | – | –
10 | C=C(C)[C@@H]1CC[C@]2(CCNCCN3CCC(S(C)(=O)=O)CC3)CC[C@]3(C)[C@H](CC[C@@H]4[C@@]5(C)CC[C@H](OC(=O)CC(C)(C)C(=O)O)C(C)(C)[C@@H]5CC[C@]43C)[C@@H]12 [Compound 51gg, (3β)-17-[2-[[2-[4-(Methylsulfonyl)piperidin-1-yl]ethyl]amino]ethyl]-28-norlup-20(29)-en-3-ol, 3-(1-Hydrogen 2,2-Dimethylbutanedioate)] | – | – | 30.9% | 57.7
11 | CC(C)(CC(=O)O[C@H]1CC[C@]2(C)[C@H]3CC[C@@H]4[C@H]5[C@H](C6(C)CC6)CC[C@]5(CCNCCN5CCCC5)CC[C@@]4(C)[C@]3(C)CC[C@H]2C1(C)C)C(=O)O [Compound 51h, (3β)-17-[2-[[2-(1-Pyrrolidinyl)ethyl]amino]ethyl]-20,29-methano-28-norlupan-3-ol, 3-(1-Hydrogen 2,2-Dimethylbutanedioate)] | 20.1% | 70.1% | – | –
12 | CN1CCN(CCCNCC[C@]23CC[C@@H](C4(C)CC4)[C@@H]2[C@H]2CC[C@@H]4[C@@]5(C)CC[C@H](OC(=O)CC(C)(C)C(=O)O)C(C)(C)[C@@H]5CC[C@@]4(C)[C@]2(C)CC3)CC1 [Compound 51i, (3β)-17-[2-[[3-(4-Methylpiperazin-1-yl)propyl]amino]ethyl]-20,29-methano-28-norlupan-3-ol, 3-(1-Hydrogen 2,2-Dimethylbutanedioate)] | 22.0% | 71.9% | – | –
13 | C=C(C)[C@@H]1CC[C@]2(CCNCCN3CCC(O)CC3)CC[C@]3(C)[C@H](CC[C@@H]4[C@@]5(C)CC[C@H](OC(=O)CC(C)(C)C(=O)O)C(C)(C)[C@@H]5CC[C@]43C)[C@@H]12 [Compound 51ii, (3β)-17-[2-[[2-(4-Hydroxypiperidin-1-yl)ethyl]amino]ethyl]-28-norlup-20(29)-en-3-ol, 3-(1-Hydrogen 2,2-Dimethylbutanedioate)] | – | – | 29.5 (3) % | 70.1
14 | CN(C)CCCCNCC[C@]12CC[C@@H](C3(C)CC3)[C@@H]1[C@H]1CC[C@@H]3[C@@]4(C)CC[C@H](OC(=O)CC(C)(C)C(=O)O)C(C)(C)[C@@H]4CC[C@@]3(C)[C@]1(C)CC2 [Compound 51j, (3β)-17-[2-[[(4-Dimethylamino)butyl]amino]ethyl]-20,29-methano-28-norlupan-3-ol, 3-(1-Hydrogen 2,2-Dimethylbutanedioate)] | 6.4% | 53.6% | – | –
15 | CCN1CCC(NCC[C@]23CC[C@@H](C4(C)CC4)[C@@H]2[C@H]2CC[C@@H]4[C@@]5(C)CC[C@H](OC(=O)CC(C)(C)C(=O)O)C(C)(C)[C@@H]5CC[C@@]4(C)[C@]2(C)CC3)CC1 [Compound 51k] | 27.3 (2) % | 55.0 (2) % | – | –
16 | C=C(C)[C@@H]1CC[C@]2(CCNCCN3CCN(Cc4ccc(F)cc4)CC3)CC[C@]3(C)[C@H](CC[C@@H]4[C@@]5(C)CC[C@H](OC(=O)CC(C)(C)C(=O)O)C(C)(C)[C@@H]5CC[C@]43C)[C@@H]12 [Compound 51l, (3β)-17-[2-[[2-[4-(4-Fluorophenylmethyl)piperazin-1-yl]ethyl]amino]ethyl]-28-norlup-20(29)-en-3-ol, 3-(1-Hydrogen 2,2-Dimethylbutanedioate)] | – | – | 38.2 (3) % | 48.9
